Measured values reported in patent US9291629B2, “Adiponectin receptor C-terminal fragments (CTF)-immunoglobulin” (Siemens Healthcare Diagnostics Inc., priority 2011, dated 2016).

Experiments:
mouse myocytes (C2C12) = assay: Western blot of CTF immunoglobulin in induced mouse myocytes (C2C12); format: cell-based; details: for Increase of CTF immunoglobulin on treatment of cell cultures: myocyte cell culture; for Primarily observed immunoglobulin chains with CTF: treated myocyte, denatured western blot of lysates
Description: (§1) Samples and homogenates with protein concentration of about 20 ug/ml were boiled in water for 5 minutes in buffer with SDS and chilled on ice to denature the protein. The sample was then centrifuged to remove precipitate and was boiled sample 1:1 with BioRad Laemmli buffer with 5% beta-mercaptoethanol to break the disulfide bonds. The treated samples were loaded onto the 12% or 10% Ready Gel (Biorad) and SDS-PAGE gel was run in Tris, glycine, SDS buffer (BioRad) at 110V (BioRad PROTEAN® Tetra Cel) for 1-1.5 hours until the bromophenol blue reached the bottom of the gel. Gel plates were disassembled, soaked in transfer buffer and the gels were transferred to 0.2 um nitrocellulose paper at 30V in a 4° C. chamber overnight.
(§2) After the protein transfer, the nitrocellulose was rinsed and washed with TTBS buffer (20 mM Tris, 500 mM NaCl, pH 7.4, 0.1% Tween®-20). The membrane was then blocked with 5% BSA in TTBS at room temperature with gentle agitation. The blocking buffer was then removed and the membrane was incubated with antibodies conjugated to alkaline phosphatase or horse radish peroxidase. For AdipoR1 CTF, the mAb 444-1D12 conjugated to alkaline phosphatase was used (2.5 mg/ml diluted 1:1000 Siemens Healthcare Diagnostics). The membrane with antibody conjugate was incubated at room temperature for 3 hours or at 4° C. overnight with gentle agitation. The antibody was then discarded and the gel was washed three times with TTBS for 5 minutes each. The membrane was incubated with the alkaline phosphate or horse radish peroxidase substrate and the color developed and recorded. In some cases the membrane was imaged by exposure to X-ray film (Fisher) at a desired time (3 seconds to 10 minutes) and then developed using Kodak® GBX developer/fixer.
(§3) Cell culture mouse myocytes (C2C12) and green monkey epithelial cell (VERO) (American Type Cell Culture, ATCC, Manassa Va.) were maintained in culture using RPMI-1640 media, while normal cells were maintained with modified Eagle's medium (MEM). Both media contained 2 mM glutamine, penicillin (50 units/ml), streptomycin (50 μg/ml), and 10% fetal bovine serum. The media was cytokine free. Cells were grown at 37° C. in an atmosphere of 95% air and 5% CO2 and propagated by splitting with 1 to 4 dilutions using PBS/EDTA at cell growth confluence. Cell lines were synchronized and induced with R1 CTF25 SEQ ID NO:11 or globular adiponectin.
(§4) Both cell lines expressed Adiponectin receptor 1 and lysates from both cell lines contained CTF immunoglobulin, comprising the heavy chain and full IgG but without the light chain form on denatured Western blots. As these are cell cultures grown in fetal bovine serum containing bovine IgG, the cells attach CTF to IgG. […]

CTF immunoglobulin = assay: Western blot of CTF immunoglobulin in tissues of diabetic rats treated with AdipoR1 CTF25; format: in vivo; details: for Primarily observed immunoglobulin chains with CTF: treated diabetic rats
Description: Western blot analyses were run on human plasma, pancreas, adipose, liver and muscles tissue, as well as myocytes and epithelial cell culture homogenates according to the following methods and variations thereof.
as §1, §2
The results of the western blots obtained on liver, pancreas, muscle and mesenteric tissues of normal rats, diabetic rats and diabetic rats treated with AdipoR1 CTF25 (SEQ ID NO: 11) are shown in Table 3. Results are typical for all monoclonal antibodies to CTF AdipoR1 and AdipoR2 and treatments tested. All of the tissues show the presence of CTF immunoglobulins. […] Differences in the amount of immunoglobulin chains with CTF were observed between individual rat and between normal and diabetic rats. All tissues contained IDE and TACE.

[1] = system: green monkey epithelial cell (VERO); assay: Western blot of CTF immunoglobulin in induced green monkey epithelial cells (VERO); format: cell-based; details: for Increase of CTF immunoglobulin on treatment of cell cultures: epithelial cell culture; for Primarily observed immunoglobulin chains with CTF: treated epithelial cells, denatured western blot of lysates
Description: as §1, §2, §3, §4

Substance	Increase of CTF immunoglobulin on treatment of cell cultures (mouse myocytes (C2C12))	Primarily observed immunoglobulin chains with CTF (mouse myocytes (C2C12))	Increase of CTF immunoglobulin bands on treatment (CTF immunoglobulin; rat tissues)	Primarily observed immunoglobulin chains with CTF (CTF immunoglobulin; liver)	Primarily observed immunoglobulin chains with CTF (CTF immunoglobulin; mesenteric tissues)	Primarily observed immunoglobulin chains with CTF (CTF immunoglobulin; muscle)	Primarily observed immunoglobulin chains with CTF (CTF immunoglobulin; pancreas)	Increase of CTF immunoglobulin on treatment of cell cultures [1]	Primarily observed immunoglobulin chains with CTF [1]
HFYGVSNLQEFRYGLEGGCTDDTLL [AdipoR1 CTF25]	did not increase CTF immunoglobulin	Heavy chains &	did not increase bands	Light chains	Heavy & light	Heavy & light	Heavy chain	did not increase CTF immunoglobulin	Heavy chains &
adiponectin [reference compound]	did not increase CTF immunoglobulin bands	Heavy chains & full						did not increase CTF immunoglobulin bands	Heavy chains & full
